Results taken from patent US5888978A, “Method for reducing the severity of gastro-intestinal damage” (Trega Biosciences, Inc., priority 1995, dated 1999).

Test system: indomethacin treated rats
Assay: indomethacin-induced GI damage in rats (diarrhea and survival)
Format: in vivo, Harlan Sprague-Dawley rats
Conditions: Ind-CRA-1 group
Method: As disclosed herein, administration of a CRA reduced the severity of GI damage in indomethacin treated rats. The effect of indomethacin administration on GI damage to rats is a well recognized model for studying the efficacy of agents that can affect GI damage (see, for example, Perkins et al., J. Pharmacol. Expt. Ther. 269:151-156 (1994)). In the model system used in the experiments described in Example I, the appearance of diarrhea and animal survival were determined following administration of indomethacin, alone, or with concurrent treatment using a cytokine regulatory agent.
The CRA, Ac-Nle-Gln-His-(D)Phe-Arg-(D)Trp-Gly-NH2 (CRA-1), was prepared as described (U.S. Pat. No. 5,420,109, supra, 1995). Adult male Harlan Sprague-Dawley rats (325-425 g) were divided into four groups (6 rats/group). Rats were weighed every morning and food was removed prior to receiving any treatment. Two groups of rats were pretreated by intraperitoneal (ip) injection of sterile saline, alone ("control"), and the remaining two groups were pretreated by ip injection of CRA-1 (100 μg/kg in saline). Pretreatment injections were administered between 8:00-9:00 am.
One hr following the pretreatment, one group of control rats was injected ip, on the side opposite the initial injection, with saline (Sal-control) and the other control group was injected with indomethacin (Ind-control; 10 mg/kg in saline, adjusted to pH 7.5-8.5 with NaOH). Similarly, the two groups of CRA-1 treated rats received either saline (Sal-CRA-1) or indomethacin (Ind-CRA-1). At 8 hr and 16 hr after the pretreatment, control rats and CRA-1 rats were administered saline or CRA-1, respectively. Food was returned to the rats after the 8 hr injection. This protocol was repeated for 7 days.

For `CCCC[C@H](NC(C)=O)C(=O)N[C@@H](CCC(N)=O)C(=O)N[C@@H](Cc1c[nH]cn1)C(=O)N[C@H](Cc1ccccc1)C(=O)N[C@@H](CCCNC(=N)N)C(=O)N[C@H](Cc1c[nH]c2ccccc12)C(=O)NCC(N)=O` [CRA-1, Ac-Nle-Gln-His-(D)Phe-Arg-(D)Trp-Gly-NH2], the “surviving rats with diarrhea by day 7” value (2 of the surviving 5 rats, CRA-1 100 μg/kg ip plus indomethacin 10 mg/kg ip, all 3 surviving Ind-saline rats had diarrhea) was 40%, the “surviving rats with diarrhea by day 8” value (3/5, CRA-1 100 μg/kg ip plus indomethacin 10 mg/kg ip) was 60% and the “survival by day 8” value (5/6, CRA-1 100 μg/kg ip plus indomethacin 10 mg/kg ip, Ind-saline control 66.7% lethality) was 83.3%. For the same molecule, the “rats with diarrhea at day 4” value (6 rats, CRA-1 100 μg/kg ip (pretreatment, 8 hr and 16 hr) plus indomethacin 10 mg/kg ip daily, Ind-saline control 5 of 6 (83.3%)) was “none” and the “rats that had died by day 7” value (CRA-1 100 μg/kg ip plus indomethacin 10 mg/kg ip daily for 7 days, Ind-saline control 3 of 6 died) was 1 of the 6.
